This note sets out measurements from US20070128586A1, “Therapeutic, prophylactic and diagnostic agents” (priority 2003, published 2007).

Test [1] in a line: Plasma endotoxin assay (chromogenic limulus amoebocyte lysate), cirrhotic patients. Format: in vivo, human.
A further test concerns TNF-α. Put plainly: Serum TNF-α assay (Quantikine HS immunoassay), cirrhotic patients. Format: in vivo, human. To be noted: Child-Pugh B/C patients, n = 7; controls 1.7, no lactulose 3.1.
A further test deals with sTNF RI (p55). As to the kind of experiment: Serum sTNFR assay, sTNF RI (p55), cirrhotic patients. The test is classed as in vivo, human. To be noted: Child-Pugh B/C patients, n = 7; controls 1643, no lactulose 3852. How it is done:
(§1) Peripheral blood was drawn using pyrogen-free needles, syringes and containers (Becton-Dickinson, Singapore). Plasma and serum were separated in a refrigerated centrifuge at 4° C. and stored at −70° C. in pyrogen-free polyethylene cryotubes (Nunc, Denmark) until analysis within six weeks of collection. Whole blood was used for determination of TLR expression on peripheral blood monocytes. Serum sTNF RI (p55) and sTNF RII (p75) were measured using Quantikine HS Human sTNFR Immunoassays (R&D Systems Inc., Minneapolis, USA), according to the manufacturer's instructions.

The subject of another test is sTNF RII (p75). Put plainly: Serum sTNFR assay, sTNF RII (p75), cirrhotic patients. The following applies: Child-Pugh B/C patients, n = 7; controls 2438, no lactulose 5933. The test is classed as in vivo, human. How it is done: as §1
For a further test, the system named is TLR-2. Put plainly: Flow cytometry for TLR-2 expression on CD14+ve peripheral blood monocytes, cirrhotic patients. The test is classed as in vivo, human. The following applies: Child-Pugh B/C patients, n = 7; ratio of geometric mean fluorescence to mean control values. (In general: A flow cytometer gives signals particle by particle.)
The subject of a further test is TLR-4. Put plainly: Flow cytometry for TLR-4 expression on CD14+ve peripheral blood monocytes, cirrhotic patients. Format: in vivo, human. To be noted: Child-Pugh B/C patients, n = 7; ratio of geometric mean fluorescence to mean control values. From the text:
Isotype matched non-binding controls were used for comparison. Ten thousand CD14^+ve cells were acquired for each sample and dead cells were gated out based on their light scatter properties on FACSCaliber flow cytometer (Becton Dickinson, USA). At least two control patients were used for standardization purposes every flow cytometry session. TLR-2 and TLR-4 values were expressed as a ratio of the geometric mean fluorescence of individual study patients to mean control values for that session.

Test [2] concerns PBMCs. Put plainly: In vitro production of TNF-α by PBMCs stimulated with endotoxin. The test is classed as cell-based, human. The following applies: Child-Pugh B/C patients, n = 7; endotoxin 10 ng/mL, 20 h; ratio stimulated to unstimulated cells.
Test [3] deals with PBMCs. Put plainly: In vitro production of TNF-α by PBMCs stimulated with SEB. The test is classed as cell-based, human. To be noted: Child-Pugh B/C patients, n = 7; SEB 10 ng/mL, 20 h; ratio stimulated to unstimulated cells.
For the next test, the system named is HBV. As to the kind of experiment: HBV DNA in chronic Hepatitis B patients (Cobas Amplicor HBV Monitor Test). The test is classed as in vivo, Hepatitis B virus. To be noted: five CHB patients; fell from >200,000 following treatment with lamivudine. How it is done:
Eighteen non-cirrhotic patients with chronic Hepatitis B (CHB) and on-going viral replication (HBV DNA >200,000 genomes/mL, n=12 and 200-10,000 genomes/mL, n=6; Cobas Amplicor HBV Monitor (trademark) Test, USA) and 32 healthy control subjects were studied. TLR-2 and TLR-4 expression on CD14^+ve peripheral blood mononuclear cells (PBMC's) was measured by flow cytometry using anti-CD14 (Becton Dickinson) and anti-TLR-2 and anti-TLR-4 (eBioscience, USA) monoclonal antibodies. TLR expression was reassessed in five patients in whom HBV DNA fell from >200,000 to <200 genomes/mL following treatment with lamivudine. In vitro TLR-2 expression by PBMCs was measured in five control subjects at baseline and following stimulation for 20 h by partially purified recombinant HBV. […] TLR-2 expression normalised in each of the five lamivudine-treated CHB patients in whom HBV DNA became undetectable. In vitro expression of TLR-2 fell in a concentration-dependent manner following exposure to recombinant HBV.

For `OC[C@H]1O[C@@H](O[C@@H]2[C@@H](CO)OC(O)(CO)[C@H]2O)[C@H](O)[C@@H](O)[C@H]1O` (mixture of isomers) [lactulose], the “Plasma endotoxin, Median” value in [1] (Child-Pugh B/C patients, n = 7, controls 25, no lactulose 49) worked out at 13 pg/mL. For the same compound, in test [1] (subgroup of Child-Pugh B and C patients treated with lactulose), the “Plasma endotoxin values compared with control subjects” value was “not significantly different from those in control subjects”. The “Serum TNF-α, Median” value with TNF-α is 4.2 pg/mL. The “Serum soluble TNF receptor I, Median” value in the test with sTNF RI (p55) came to 3878 pg/mL. Besides, the “Serum soluble TNF receptor II, Median” value with sTNF RII (p75) was 5440 pg/mL. Further, in the test on TLR-2, the “Expression of TLR-2 on CD14+ve PBMCs, Median” value was 1.29. In addition, the “Expression of TLR-4 on CD14+ve PBMCs, Median” value in the test with TLR-4 worked out at 1.06. In the test on PBMCs [2], the “In vitro production of TNF-α by PBMCs in response to endotoxin, Median” value turned out to be 3.1. In the test with PBMCs [3], the “In vitro production of TNF-α by PBMCs in response to SEB, Median” value is reported as 1.5.
Take `Nc1ccn([C@@H]2CS[C@H](CO)O2)c(=O)n1` [lamivudine]: the “HBV DNA following treatment” value in the test on HBV was < 200 genomes/mL.
